PubChem BioAssay (NCI)
Values joined by “and” are separate entries in the source; they are usually repeats but may differ in a detail not shown here. Equal entries are not always repeated.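 Method: 48-hour compound exposure of cells in 96-well plates, five concentrations, linear interpolation of endpoints. At the GI50, growth is halved. The concentration for full growth arrest is given as TGI.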

How the values were obtained:
Assay in all cases: inhibition of tumour cell growth, NCI panel, 48 h
A498 renal = tested on: A498 renal
CCRF-CEM leukemia = tested on: CCRF-CEM leukemia
DU-145 prostate = tested on: DU-145 prostate
NCI/ADR-RES ovarian = tested on: NCI/ADR-RES ovarian
SF-268 CNS = tested on: SF-268 CNS
SK-MEL-2 melanoma = tested on: SK-MEL-2 melanoma
SK-MEL-5 melanoma = tested on: SK-MEL-5 melanoma
SN12C renal = tested on: SN12C renal
SNB-75 CNS = tested on: SNB-75 CNS
TK-10 renal = tested on: TK-10 renal

Row | SMILES | GI50 (A498 renal) | TGI (A498 renal) | GI50 (CCRF-CEM leukemia) | TGI (CCRF-CEM leukemia) | GI50 (DU-145 prostate) | TGI (DU-145 prostate) | GI50 (NCI/ADR-RES ovarian) | TGI (NCI/ADR-RES ovarian) | GI50 (SF-268 CNS) | TGI (SF-268 CNS) | GI50 (SK-MEL-2 melanoma) | TGI (SK-MEL-2 melanoma) | GI50 (SK-MEL-5 melanoma) | TGI (SK-MEL-5 melanoma) | GI50 (SN12C renal) | TGI (SN12C renal) | GI50 (SNB-75 CNS) | TGI (SNB-75 CNS) | GI50 (TK-10 renal) | TGI (TK-10 renal)
1 | O=c1[nH]c(=O)n([C@H]2CCCO2)cc1F | > 2170 µM | 979 µM and > 5000 µM | 527 µM | > 5000 µM | 910 µM | > 5000 µM | 3030 µM | > 5000 µM | 3000 µM | > 5000 µM | 1950 µM | > 5000 µM | 429 µM | > 2600 µM | 1910 µM | > 5000 µM | > 5000 µM | 826 µM and > 5000 µM | 1880 µM | > 5000 µM
2 | O=C(NCc1ccc(S(=O)(=O)c2cc(F)cc(F)c2)cc1)c1ccc2nccn2c1 | > 28.4 µM | > 86.8 µM |  | > 100 µM | 0.0773 µM | > 100 µM | 5.08 µM | > 100 µM | 28.4 µM | > 100 µM | 20.1 µM | > 74.9 µM | 2.22 µM | > 100 µM | < 0.01 µM | > 100 µM | 15.3 µM | 45.8 µM | 36.3 µM | > 62.9 µM
3 | Nc1nc(N)c2cc(CNc3ccc(C(=O)NC(CC(=O)O)C(=O)O)c(Cl)c3)ccc2n1 (stereo not given) | 0.05 µM | > 500 µM | 0.05 µM | > 500 µM |  | > 500 µM | 0.05 µM | > 500 µM | 0.189 µM |  | > 500 µM | > 500 µM | 0.05 µM | > 500 µM | 0.05 µM | > 500 µM | 71.7 µM | > 500 µM | > 500 µM | > 500 µM
4 | CCCCCCCCCCCCOC1C(C(CC(=O)NCCN2CCCC2)NS(=O)(=O)c2cc(Cl)cc(Cl)c2)OC2OC(C)(C)OC21 (stereo not given) | 2.4 µM | 4.79 µM | 0.00586 µM | 0.0349 µM | 1.86 µM and 1.79 µM | 3.45 µM and 3.23 µM | 2.04 µM | 4.08 µM | 1.95 µM and 1.97 µM | 3.96 µM and 3.84 µM | 2.63 µM | 4.95 µM | 1.81 µM | 3.27 µM | 1.76 µM | 3.23 µM | 1.9 µM and 1.42 µM | 3.56 µM and 2.86 µM | 2 µM | 3.82 µM
5 | Cc1cc(C)n(-c2nnc3n2N=C(c2ccc(-c4ccccc4)cc2)CS3)n1 | 2.03 µM | 7.09 µM | 3.12 µM | > 100 µM | 3.82 µM | > 100 µM | 3.09 µM | > 100 µM | 3.96 µM | > 100 µM | 2.58 µM | 7.17 µM | 2.46 µM | 5.88 µM | 3.92 µM | > 100 µM | 3.24 µM | 54.8 µM | 2.47 µM | 42.2 µM
6 | CC/C=C/C/C=C/C/C=C/C/C=C/C/C=C/C/C=C/CCC(=O)Nc1ccn([C@@H]2O[C@H](CO)[C@@H](O)C2(F)F)c(=O)n1 | 0.0566 µM | 44.4 µM | 0.0537 µM | 15.1 µM | 0.043 µM | 24.9 µM | 0.0386 µM | 16.9 µM | 0.0631 µM | 26.3 µM | 35.9 µM | > 66.8 µM | 0.348 µM | 17.8 µM | 0.126 µM | 8.78 µM | 0.863 µM | > 50.1 µM | 39.1 µM | > 66.5 µM
7 | COC(=O)c1cc(/C=C/c2ccc(S(N)(=O)=O)cc2)ccc1O | 0.0161 µM | 20.2 µM | 41 µM | > 100 µM | 15.9 µM | > 100 µM | 59.2 µM | > 100 µM | 37.3 µM | > 100 µM | 66.8 µM | > 100 µM | 14.5 µM | 35.5 µM | 29.3 µM | 89.9 µM | 57 µM | > 100 µM | 28.1 µM | > 100 µM
8 | CCN(CC)CCNC(=O)c1ccc(C)c(OCc2ccccc2)c1[N+](=O)[O-] |  | > 82.8 µM |  | 81.4 µM |  | > 100 µM |  | > 62.8 µM |  | > 100 µM |  | 41 µM |  | 30.5 µM |  | > 100 µM |  | 67.9 µM |  | 98.1 µM
9 | CC[C@@]1(O)C(=O)OCc2c1cc1n(c2=O)Cc2c-1nc1cc(F)c(C)c3c1c2[C@@H](N)CC3 | < 0.01 µM | 0.0221 µM | < 0.01 µM | > 100 µM | < 0.01 µM | > 100 µM | < 0.01 µM | > 100 µM | < 0.01 µM | 2.17 µM | 0.138 µM | 1.4 µM | < 0.01 µM | 0.0203 µM | < 0.01 µM | > 100 µM | < 0.0137 µM | 0.101 µM | 0.0725 µM | 
10 | Cc1ccc(S(=O)(=O)NC(=O)NC2=NC(C)(C)N(c3ccc(Cl)c(Cl)c3)C(N)=N2)cc1 |  | > 100 µM |  | > 100 µM |  | > 100 µM |  | > 100 µM |  | > 100 µM |  | > 100 µM |  | > 100 µM |  | > 100 µM |  | > 100 µM |  | > 100 µM
11 | COCOc1ccc(C2(O)Oc3cc(OCOC)ccc3C2C)c(O)c1 (stereo not given) |  | 28.8 µM |  | 53.7 µM |  | 25.8 µM |  | 30.9 µM |  | 30 µM |  | 32.7 µM |  | 23 µM |  | 30 µM |  | 30.4 µM |  | 32.5 µM
12 | CCCCCc1ccc(S(=O)(=O)Nc2cc(-c3csc(NC(C)=O)n3)ccc2N2CCN(C)CC2)cc1 | 6.23 µM | 11.3 µM | 4.82 µM | 20.3 µM | 5.16 µM | 9.8 µM | 4.54 µM | 9.18 µM | 5.52 µM | 11.6 µM | 5.76 µM | 12.6 µM | 5.28 µM | 9.79 µM | 4.7 µM | 9.25 µM | 3.67 µM | 7.98 µM | 6.09 µM | 11.7 µM
13 | Nc1nc(N)nc(CCCc2nc(N)nc(N)n2)n1 |  | > 100 µM |  | > 100 µM |  | > 100 µM |  | > 100 µM |  | > 100 µM |  | > 100 µM |  | > 100 µM |  | > 100 µM |  | > 100 µM |  | > 100 µM
14 | NC(=S)N/N=C/c1cc(-c2cccc(N)c2)ccn1 | 1.61 µM | 19.1 µM | 0.674 µM | > 36.1 µM | 1.25 µM | 12 µM | 2.68 µM | > 100 µM | 1.02 µM | > 70.7 µM | 3.6 µM | 43.8 µM | 1.69 µM | 7.26 µM | 2.52 µM | > 100 µM | 2.15 µM | > 100 µM | 1.2 µM | 44 µM
15 | CC1C(=O)OC2CC[N+]3([O-])CC=C(COC(=O)C(C)(O)C1(C)O)C23 (stereo not given) |  | > 100 µM |  | > 100 µM |  | > 100 µM |  | > 100 µM |  | > 100 µM |  | > 100 µM |  | > 100 µM |  | > 100 µM |  | > 100 µM |  | > 100 µM
16 | N#Cc1ccc(OC(=O)Nc2ccc(Cl)c(Cl)c2)cc1 | 1.44 µM | 6.92 µM | 3.08 µM | 16.1 µM | 4.13 µM | > 100 µM | 3.79 µM | > 100 µM | 5.27 µM | > 100 µM | 4.13 µM | 18 µM | 6.03 µM | 19.4 µM | 3.09 µM | 25.8 µM | 2.78 µM | 20.6 µM | 3.85 µM | 33.9 µM
17 | Nc1ccccc1SC1CC(=O)N(c2ccc(Cl)c(Cl)c2)C1=O (stereo not given) | 4.88 µM | 37.2 µM | 40.6 µM | > 100 µM | 27.5 µM | > 100 µM | 17.1 µM | > 100 µM | 29.7 µM | > 100 µM | 26.9 µM | > 100 µM | 21.9 µM | > 100 µM | 28.5 µM | > 100 µM | 13.3 µM | 34.4 µM | 20 µM | 53 µM
18 | Nc1ccc2[nH]cc(CCC(=O)O)c2c1 |  | > 100 µM |  | 32.9 µM |  | > 100 µM |  | > 100 µM |  | > 100 µM |  | > 100 µM |  | > 100 µM |  | > 100 µM |  | > 100 µM |  | > 100 µM
19 | COC(C(=O)[C@@H](O)[C@@H](C)O)[C@@H]1Cc2cc3cc(O[C@H]4C[C@@H](O[C@H]5C[C@@H](O)[C@H](O)C(C)O5)[C@H](O)C(C)O4)c(C)c(O)c3c(O)c2C(=O)[C@H]1O[C@H]1C[C@@H](O[C@H]2C[C@@H](O[C@H]3C[C@@H](O)[C@H](OC)C(C)O3)[C@@H](O)C(C)O2)[C@H](O)C(C)O1 (stereo not given in full) | 0.00614 µM | 0.0224 µM | 0.0425 µM | > 13.1 µM | 0.0188 µM | > 33.3 µM | 6.93 µM | > 33.3 µM | 0.0307 µM | > 33.3 µM |  | 0.0392 µM | 0.00955 µM | 0.0444 µM |  | > 33.3 µM |  | 0.23 µM |  | 0.322 µM
20 | O=C(N/N=C/c1c(Cl)cccc1Cl)c1ccc(C(F)(F)F)nc1Nc1cccc(C(F)(F)F)c1 | 0.603 µM | 2.39 µM | 0.34 µM | 8.98 µM | 1.79 µM | > 32.8 µM | 0.616 µM |  | 1.22 µM | > 29.3 µM | 1.87 µM | 8.19 µM | 0.829 µM | 2.84 µM | 0.912 µM | 20.8 µM | 2.46 µM | 54.6 µM | 2.87 µM | > 91.4 µM
21 | CCOC(CN(C)C(=S)Nc1cccc2ccccc12)OCC |  | > 10 µM |  | > 10 µM |  | > 10 µM |  | > 10 µM |  | > 10 µM |  | > 10 µM |  | > 10 µM |  | > 10 µM |  | > 10 µM |  | > 10 µM
22 | O=C(CSC(c1ccccc1)c1ccccc1)N/N=C/c1ccco1 | 1.89 µM | 5.37 µM | 2.48 µM | 22 µM | 2.69 µM | > 4.92 µM |  | 1.24 µM | 2.25 µM | > 12.5 µM | 1.4 µM | 3.76 µM | 1.5 µM | 6.41 µM | 17.2 µM | 35.7 µM | 17.1 µM | 58.1 µM | 2.21 µM | 7.62 µM
23 | COc1ccc2c(Oc3ccc(NC(=O)c4c(C)n(CC(C)(C)O)n(-c5ccccc5)c4=O)nc3)ccnc2c1 | 4.41 µM | 85.1 µM | 18.2 µM | > 100 µM | 12.1 µM | > 100 µM | 20.5 µM | > 100 µM | 16.8 µM | > 100 µM | 13.3 µM | 49.4 µM | 11.5 µM | > 68.1 µM | 4.94 µM | > 100 µM | 5.53 µM | 71.1 µM | 5.92 µM | 19.8 µM
24 | C[C@H]1CCC/C=C/[C@@H]2C[C@H](O)C[C@H]2[C@H](O)[C@@H](SCC(O)CO)CC(=O)O1 (stereo not given in full) | 24.4 µM | 50.2 µM | 34.1 µM | > 100 µM | 17.8 µM | 39.2 µM | > 100 µM | > 100 µM | 10.9 µM | > 100 µM | 25.2 µM | 66.9 µM | 6.3 µM | 19.5 µM | 34.3 µM | > 100 µM | 6.77 µM | > 100 µM | 48 µM | > 100 µM
